The record followed here is PMC5974752, “Bax/Tubulin/Epithelial-Mesenchymal Pathways Determine the Efficacy of Silybin Analog HM015k in Colorectal Cancer Cell Growth and Metastasis” (Frontiers in Pharmacology, 2018).

Broadly, the IC50 is the concentration at which inhibition is half-maximal.

Each structure is given as a SMILES string.

One assay relates to PARP. Briefly: Western blot in HCT116 cells (nuclear fraction). The class given is cell-based, human. Conditions: 4 μM, vs control. The method, then: HCT116 cells were lysed to obtain cytoplasmic and nuclear protein fractions, according to the protocol used in previous publications (Alhadidi and Shah, [2017]). Briefly, the cells were seeded in and incubated with 15k for overnight at 4μM. The cells were washed using ice-cold PBS and scraped using a cell scraper and collected in 15ml tubes. The cells were centrifuged and the PBS was discarded and replaced with 400 μl of buffer A (10 mM HEPES, pH 7.9, 0.1 mM EDTA, 0.1 mM EGTA, 10 mM KCl, 1 mM dithiothreitol, and 0.5 mM phenylmethylsulfonyl fluoride) in each tube. The cells were allowed to swell under in the buffer for 15 min on ice. Subsequently, 0.1% Nonidet P-40 was added to each suspension for 1 min to disturb the plasma membrane. The nuclei were precipitated by centrifugation at 13,000 rpm for 1 min at 4°C. The cytoplasmic proteins were collected in the supernatant and stored at −80°C. Two hundred μl of Buffer B (20 mM HEPES, pH 7.9, 1 mM EDTA, 1 mM EGTA, 400 mM NaCl, 1 mM dithiothreitol, and 1 mM phenylmethylsulfonyl fluoride) was added to the pellets and left for 30 min on ice with periodic mixing. […] The bicinchoninic acid (BCA) quantification assay was used to determine the concentration of protein in the cell extracts. […] Finally, proteins were quantified using the image J software. Data were calculated as ratios to β-actin.
(Immunoblotting shows a protein as a band on a membrane.)

Assay [1] deals with HCT116 cells. In words: IncuCyte Cytotox green real time cell death. Format: cell-based, human. The protocol:
For real time quantification of cell death, the Incucyte Cytotox green reagent was used. […] The plasma membrane integrity is decreased in unhealthy cells, allowing entry of the IncuCyte Cytotox reagent, yielding a 100- to 1,000-fold increase in fluorescence upon binding to deoxyribonucleic acid (DNA) (at an excitation maximum of 491 nm and an emission maximum of 509 nm). The HCT116 cells were seeded at a density of 1,000 cell/well and allowed to grow overnight. […] The cells were then incubated in a IncuCyte Zoom live cell imaging apparatus and pictures were taken every 2 h for up to 50 h.The IncuCyte® integrated analysis software was used to quantify the fluorescent objects and minimize the background fluorescence (IncuCyte ZOOM version 2016A, Essen BioScience, Ann Arbor, MI 48108, USA).

The test system of assay [2] is HCT116 cells. Briefly: CellTiter-Glo luminescent assay (ATP content). Format: cell-based. Conditions: Homo sapiens, HCT-116, data not shown, read-out: IC50, ATP depletion. The protocol: Subsequently, we conducted experiments to determine if compound 15k produced a time-dependent effect on cell death. […] The HCT116 cells had intense fluorescence over time compared to the cells incubated with vehicle, with a significant difference in the number of dead cells after 24 h of incubation with 2 μM of 15k. […] The cytotoxicity of 15k and 15j in HCT116 cells were further determined using a more homogeneous CellTiter-Glo® luminescent cell based assay that measures the ATP content in the metabolically active cells.
Background: Cellular ATP, detected with luciferase, serves as a proxy for viable cell number.

As to `O=C(/C=C/c1cccc(OCc2ccccc2)c1)c1ccc(O)cc1` [Compound 15k], the “total PARP” value in the assay on PARP is “significantly reduced”. Besides, in the assay with HCT116 cells [1] (2 μM, vs vehicle), the “time of significant difference in the number of dead cells” value was found to be 24 h. The “time of significant increase in cell death” value in the assay on HCT116 cells [1] (4 and 8 μM, vs control cells) is given as 12 h. The IC50 in the assay with HCT116 cells [2] came out at 760 nM.
